Measurements: article PMC8536575, “Acute effects of the imidacloprid metabolite desnitro-imidacloprid on human nACh receptors relevant for neuronal signaling” (Archives of Toxicology, 2021)

Key:
nAChRs on LUHMES neurons = test: Desensitization of nAChR agonist-evoked [Ca2+]i responses of LUHMES neurons; type: cell-based, human
Method: Ca^2+-imaging was performed using HT Functional Drug Screening System FDSS/µCELL (Hamamatsu Photonics) at nominal 37 °C. The FDSS/µCell system enables the indirect recording of changes of [Ca^2+]i via a Ca^2+-sensitive fluorescent dye. The fluorescence signal of a complete 384-well plate is acquired at once with a high-speed and high-sensitivity digital ImagEM X2 EM-CCD camera (Electron Multiplying Charge-Coupled Device, Hamamatsu Photonics), but with limited spatial resolution. Therefore, the software only determines the mean fluorescence signal of each well rather than of individual cells. For compound application, the integrated dispenser head with 384 pipette tips was used, which can add the test compound to all wells simultaneously. Cells were preincubated with Cal-520 AM (AAT Bioquest) at a concentration of 1 µM for 1 h at 37 °C. For recording, the medium was exchanged by a buffer solution containing [mM]: 135 NaCl, 5 KCl, 0.2 MgCl2, 2.5 CaCl2, 10 HEPES, and 10 D-glucose, pH 7.4. Test compound application was executed after obtaining a 1.5 min baseline recording. Where applicable, a second application was executed 4.5 min after the first application. The total recording never exceeded 8 min.
For the high-throughput Ca^2+-imaging data obtained in LUHMES cells, an offset correction using the FDSS software (version 3.2) was performed. Afterward, the data were exported and further analyzed with scripts written in R (version 3.6.3) (R Core Team [2020]). The concentration–response curves were fitted using a log-logistic model described by Ritz et al. ([2015]), utilizing the R package drc with its function drm() and LL2.2() with the following equation: f(x) = d/[1 + exp(b(log(x) − ẽ))] (Ritz et al. [2015]). The logarithm of the half-maximal effective concentration (logEC50) between 0 and the upper limit (d), which was set to 1, is represented by ẽ, x denotes the concentration, and b stands for the slope parameter (Ritz et al. [2015]). In cases with normalizations to responses induced by other compounds, the function LL2.3() was used with a variable upper limit (d; Ritz et al. [2015]). The same equation was used to determine the half-maximal inhibitory concentration (logIC50). Then the logEC50 and logIC50 values were converted into the pIC50 and pEC50 values, which are the negative logarithms to base 10.
Fig. 4 Desensitizing effects of DN-IMI and IMI-olefin on nAChRs. LUHMES neurons differentiated in 384-well plates were pretreated with various concentrations of DN-IMI or IMI-olefin for 4.5 min before different nAChR agonists were applied and [Ca^2+]i signals were recorded. […] Note the treatment scheme (upper right corner), illustrating the experimental design. […] Note the treatment scheme (upper right corner), illustrating the experimental design. Detailed data on n numbers are found in Table S6

[1] = monoprotic base; average of values; ref CHEMBL and ACD; cited from earlier work

Question: Which “concentrations inhibiting subsequent activation of nAChRs (desensitization)” value (nAChRs on LUHMES neurons; BMR10, LUHMES) does the source give for NC1=NCCN1Cc1ccc(Cl)nc1 [DN-IMI, desnitro-imidacloprid] here?
Answer: ≥ 10 nM

Question: And the “times more potent than IMI (desensitization)” value (nAChRs on LUHMES neurons; compared to effects of IMI in Loser et al. [2021a])?
Answer: ~ 70 times

Question: And the “BMC for receptor desensitization” value (nAChRs on LUHMES neurons; for a 20% effect)?
Answer: ~ 17 nM

Question: What about the “pIC50 for desensitization of the nicotine-evoked response” value (nAChRs on LUHMES neurons; pretreatment […], 3 µM nicotine) of the same compound?
Answer: 6.9

Question: And the pKa [1]?
Answer: 9.6
